Data taken from patent US11602550B2, “Compositions comprising bacterial strains and use thereof in controlling pathogenic microorganisms” (priority 2018, dated 2023).

Assays:
Assay in all cases: Agar well diffusion antifungal assay against molds
Type in all cases: cell-based
Settings in all cases: PDA plates, 25° C. 72 hours; NA: No antagonism was observed
[1] = tested on: Alternaria alternata (Fries) Keissler (ATCC MYA-4642)
Procedure: (§1) The agar well diffusion assay was performed to evaluate the antagonistic activity of B. amyloliquefaciens 298 against the growth of pathogenic bacteria including Escherichia coli ATCC 22922, Pseudomonas aeruginosa, B. cereus ATCC 27348, Staphylococcus aureus ATCC 11335, Salmonella Typhimurium ATCC 14028 and Listeria innocua ATCC 3586. […] Brain Heart Infusion (BHI) Agar was used for the antagonism against pathogenic microorganisms while the Potato Dextrose Agar (PDA) was used for evaluation against molds. Reference pathogens were prepared using BHI broth at 37° C. for 18 hours while B. amyloliquefaciens 298 was grown using LB broth at 37° C. for 18 hours. Molds were prepared using PDA at 25° C. with 85% HR for 7 days. Mold spores, pathogens and B. amyloliquefaciens 298 were harvested and resuspended in PBS. Pathogens and B. amyloliquefaciens 298 were adjusted to an optical density of 0.2 and 100 uL of pathogen suspended in PBS was spread on BHI agar plates. The same amount of mold spore suspension was inoculated on PDA. Wells were made in all the plates and 20 μL of B. amyloliquefaciens 298 suspensions were inoculated in the wells while the BHI plates were incubated at 37° C. for 24 hours and PDA plates at 25° C. for 72 hours.
(§2) The agar well diffusion assay was performed to evaluate the antagonistic activity of B. subtilis 3 against the growth of pathogenic bacteria including Escherichia coli ATCC 25922, Pseudomonas aeruginosa ATCC 27853, B. cereus ATCC 27348, Staphylococcus aureus ATCC 6538, Salmonella Typhymurium ATCC 14028 and Listeria inocua ATCC 33090. […] Brain Heart Infusion (BHI) Agar was used for the antagonism against pathogenic microorganisms while the Potato Dextrose Agar (PDA) was used for evaluation against molds. Reference pathogens were prepared using BHI broth 37° C. for 18 hours, while B. subtilis 3 was grown using LB broth at 37° C. for 18 hours. Molds were prepared using PDA at 25° C. with 85% HR for 7 days. Mold spores, pathogens and B. subtilis 3 were harvested and resuspended in PBS. […] The same amount of mold spore suspension was inoculated on PDA. […]

[2] = tested on: Cladosporium sphaerospermum Penzig (ATCC MYA-4645)
Procedure: as §1, §2

[3] = tested on: Penicillium chrysogenum Thom (ATCC MYA-4644)
Procedure: as §1, §2

For `OO` [Hydrogen peroxide 10%, Hydrogen peroxide], the “Inhibition zone, Alternaria alternata (Fries) Keissler (ATCC MYA-4642)” value [1] was 8 mm, the “Inhibition zone, Cladosporium sphaerospermum Penzig (ATCC MYA-4645)” value [2] was 12 mm and the “Inhibition zone, Penicillium chrysogenum Thom (ATCC MYA-4644)” value [3] was 10 mm.
